These results are taken from US10980819B2, “High concentration formulation” (Cassiopea S.P.A., priority 2015, dated 2021).

Read-outs that look alike come from different tables or passages of the source.

Data set [1] can be described thus: Clinical evaluation, excretion parameters at 1st and 55th application (Example 6). Conditions: for Analyte Excreted, Free / Analyte Excreted, Total: formulation of Example 4b on scalp. It is filed as in vivo, human. On the procedure: The formulation described in Example 4b was studied in a clinical trial to evaluate its pharmacokinetic profile, safety, and tolerability. According to the study protocol, 1 ml of the formulation (corresponding to 50 mg of cortexolone-17α-propionate) was applied once a day on study day 1 and then twice daily thereafter on study days 2-28 to the areas of the scalp suffering from alopecia. Statistical analyses were performed using SAS® version 9.1.3, service pack 4 for Windows and Phoenix WinNonLin 6.3, Pharsight Corporation, USA.

Data set [2] relates to AGA. Briefly: Finasteride 1 mg tablets phase III clinical studies 087 and 089, published by the FDA (Example 11). Conditions: original value divided by 5.1. It is filed as in vivo, human. On the procedure: Based on the results of finasteride 1 mg tablets (PROPECIA®) described in the two Phase III clinical studies published online by the United States Food and Drug Administration (the FDA), it can be concluded that the mean change from baseline in non-vellus TAHC at month 6 for cortexolone-17α-propionate solution 5% (according to Example 4b), as reported in Example 9, is very similar to the mean change from baseline in non-vellus TAHC at month 6 observed in 2 phase III clinical trials on finasteride 1 mg tablets (tradename Propecia®) per os once daily. Table 20 below reports the change from baseline in TAHC at month 6 in the two finasteride studies (data of active finasteride groups) as described in the NDA for PROPECIA® published online by the FDA:
In the two finasteride studies, the target area was a 1-inch diameter circle, which corresponds to 5.1 cm^2. In order to compare the changes from baseline in TAHC at month 6 obtained in the finasteride studies and the change from baseline in TAHC at month 6 obtained with cortexolone-17α-propionate in the study of the present Example 9 (where the target area was 1 cm^2), the original finasteride data have been recalculated to take into account the differences between the total surfaces of the target areas (i.e., the values were divided by 5.1) as shown in Table 21.

Data set [3] has as its system AGA. Conditions: cited from earlier work.
Data set [4] has as its system serum DHT as well as scalp DHT. Conditions: single oral administration of finasteride 1 mg; cited from earlier work.
The conditions of data set [5]: PROPECIA package insert; 1 mg tablets; cited from earlier work.
Data set [6] is described as follows: Evaluation of cortexolone-17α-propionate solubility (Example 1). In kind it is physicochemical. Particulars: 5 g in 100 ml. As for the experimental part: 5 g of cortexolone-17α-propionate was added to 100 ml of each of the solvents or solvent mixtures shown in Table 1, below, in an effort to produce a 5% w/v solution of cortexolone-17α-propionate. In the examples in Table 1, ethanol refers to ethanol 96°.

A short description of data set [7]: Franz cell diffusion test 1 (Example 7). It is filed as in vitro ADME. Particulars: for Permeation rate / Skin concentration: 48 h, saturated solution, 300 mg on 2.54 cm^2 skin, 32° C. As for the experimental part: In an in vitro study, the skin penetration potential of cortexolone-17α-propionate was compared to cyproterone acetate using a standard Franz cell. According to the protocol, 300 mg of each test formulations was applied as saturated solution with a concentration ranging from 0.7 to 1 weight (w/w) to 2.54 cm^2 of exposed skin area. The receptor chamber volume ranged from 4.75 ml to 6.4 ml of phosphate buffered saline/fetal calf serum (2:1) containing penicillin/streptomycin according to standard protocol, and was maintained at a temperature of 32° C.+/−1° C. Stirring was maintained at 300 rpm.
The experiments were conducted for 48 h in triplicate. 100 μl fractions were withdrawn at 5-7 time points during the 48 h test period. After withdrawing a 100 μl fraction for analysis, it was replaced with fresh receiver fluid in an equal volume. At the end of the experiment, the skin was taken from the Franz cells and the skin's stratum corneum was removed by tape stripping (20×) with transparent adhesive tape (Koren, Spain).
The strippings were analyzed by dissolution in a mixture of propylene glycol:oeyl alcohol 9:1. The resulting mixture was analyzed for concentration of cyproterone acetate and cortexolone-17α-propionate, with the results provided in Table 12, below.

Setting [8] is: 1st Application (Day 1), N = 18.
[9] abbreviates: 55th Application (Day 28), N = 17.

In the case of `C[C@]12CCC(=O)C=C1CC[C@@H]1[C@@H]2CC[C@@]2(C)[C@H]1CC[C@]2(O)C(=O)CO` [Cortexolone, cortexolone], the “Analyte Excreted, Free” value in data set [1] (setting [8]) and in data set [1] (setting [9]) was “BLQL” each time. Also, the “Analyte Excreted, Total” value in data set [1] (setting [8]) amounted to 0.06 ± 0.26 µg; in data set [1] (setting [9]), 0.64 ± 0.74 µg.
`CC(C)(C)NC(=O)[C@H]1CC[C@H]2[C@@H]3CC[C@H]4NC(=O)C=C[C@]4(C)[C@H]3CC[C@]12C` [finasteride]: the “Change from Baseline in non-vellus TAHC at Month 6, recalculated over a target area of 1 cm^2” value was 12.2 in the data set with AGA [2] (Combined (study 087 + 089)), 13.6 in the data set with AGA [2] (Study 087) and 11.5 in the data set with AGA [2] (Study 089). Also, the “Change from Baseline in non-vellus TAHC at Month 6” value with AGA [3] (Combined (study 087 + 089), target area 5.1 cm^2) was 62.4; in the data set with AGA [3] (Study 087, target area 1-inch diameter circle, 5.1 cm^2, 1 mg per os once daily), 69.5; in the data set on AGA [3] (Study 089, target area 1-inch diameter circle, 5.1 cm^2, 1 mg per os once daily), 58.4. Besides, the “decrease of serum DHT as well as scalp DHT compared to baseline” value in data set [4] is “up to 70%”. The “patients with adverse events (decreased libido, erectile dysfunction, ejaculation disorders, decreased volume of ejaculate)” value in data set [5] is 1%.
Turning to `CCC(=O)O[C@]1(C(=O)CO)CC[C@H]2[C@@H]3CCC4=CC(=O)CC[C@]4(C)[C@H]3CC[C@@]21C` [Cortexolone-17α-propionate, 17α-propionyloxy-21-hydroxy-pregna-4-ene-3,20-dione], the “Cortexolone-17α-propionate Solubility at Room Temperature” value (“Cortexolone-17α-propionate Solubility” for short) in data set [6] (Caprylocaproyl polyoxyl-8 glycerides NF (LABRASOL ®)) is “Sparingly soluble”; in data set [6] (Ethanol (96°)), “Highly soluble”; in data set [6] (Ethanol/propylene glycol (1:1) v:v), “Soluble”; in data set [6] (Ethanol/propylene glycol/TRANSCUTOL ® (1:1:1) v:v) it was “Very soluble”; in data set [6] (Isopropyl myristate), “Insoluble”; in data set [6] (Isopropyl palmitate) it was “Insoluble”. For the same compound, the “Cortexolone-17α-propionate Solubility” value in data set [6] (Propylene glycol) is recorded as “Sparingly soluble”; in data set [6] (TRANSCUTOL ®/water (1:1) v:v), “Insoluble”; in data set [6] (TRANSCUTOL ®/water/ethanol (1:1:1) v:v) it was “Soluble”; in data set [6] (TRANSCUTOL ®), “Very soluble”; in data set [6] (Water/propylene glycol/TRANSCUTOL ® (1:1:1) v:v), “Insoluble”; in data set [6] (Water/propylene glycol/TRANSCUTOL ® (1:1:2) v:v), “Soluble”. In addition, in data set [6] (Water), the “Cortexolone-17α-propionate Solubility” value is listed as “Insoluble”. Besides, the “% Excreted, Free” value in data set [1] (setting [8]) came out at 0 ± 0%. In data set [1] (setting [8]), the “% Excreted, Total” value is listed as 0.25 ± 0.10%. The results for the “Analyte Excreted, Free” value in data set [1] (setting [8]) and in data set [1] (setting [9]) were 0.16 ± 0.34 µg and 2.72 ± 1.54 µg, respectively. Further, the results for the “Analyte Excreted, Total” value in data set [1] (setting [8]) and in data set [1] (setting [9]) were 126.37 ± 48.99 µg and 429.53 ± 178.24 µg, respectively. In data set [7], the Permeation rate worked out at 1410 ± 137 ng/mL/h. Further, the Skin concentration in data set [7] was 231 ± 19 µg/g. Besides, in data set [7] (versus cyproterone acetate), the “permeates skin, times as much as cyproterone acetate” value is listed as “about 3 times”. The “permeation rate, times greater than cyproterone acetate” value in data set [7] (versus cyproterone acetate) is reported as “about 10 times”.
In data set [7], `CC(=O)O[C@]1(C(C)=O)CC[C@H]2[C@@H]3C=C(Cl)C4=CC(=O)[C@@H]5C[C@@H]5[C@]4(C)[C@H]3CC[C@@]21C` [Cyproterone Acetate, cyproterone acetate, reference compound] yielded a Permeation rate of 141 ± 17 ng/mL/h and a Skin concentration of 89.4 ± 4.6 µg/g.
